In patent US10112937B2, “P2X7 modulators and methods of use” (Janssen Pharmaceutica NV, priority 2013, dated 2018):
Where a name gives a salt, the structure may show the parent alone.

Biological target: human P2X7 (Homo sapiens (Human), UniProt Q99572)
Assay: P2X7 antagonism in human PBMCs (IL-1β release after LPS + Bz-ATP, ELISA)
Type: cell-based
Settings: for PBMC 10 μM (% control): test compound 10 μM; for PBMC 1 μM (% control): test compound 1 μM

Chain of human P2X7 (Q99572 whole entry): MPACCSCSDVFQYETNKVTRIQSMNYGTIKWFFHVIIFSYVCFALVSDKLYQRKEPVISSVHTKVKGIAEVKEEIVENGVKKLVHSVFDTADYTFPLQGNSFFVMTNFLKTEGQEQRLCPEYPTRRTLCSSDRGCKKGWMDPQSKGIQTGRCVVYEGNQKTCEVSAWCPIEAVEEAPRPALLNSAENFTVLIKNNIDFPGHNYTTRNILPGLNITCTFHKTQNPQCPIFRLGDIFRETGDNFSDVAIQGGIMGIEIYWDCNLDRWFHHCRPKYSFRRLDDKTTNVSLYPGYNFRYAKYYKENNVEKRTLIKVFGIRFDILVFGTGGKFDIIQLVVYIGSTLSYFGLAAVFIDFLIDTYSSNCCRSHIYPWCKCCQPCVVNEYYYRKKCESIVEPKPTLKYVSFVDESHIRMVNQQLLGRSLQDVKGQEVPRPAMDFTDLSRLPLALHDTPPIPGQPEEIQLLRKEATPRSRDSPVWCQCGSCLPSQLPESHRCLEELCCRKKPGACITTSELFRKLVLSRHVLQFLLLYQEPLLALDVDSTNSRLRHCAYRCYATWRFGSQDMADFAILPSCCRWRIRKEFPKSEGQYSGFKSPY

PBMC 10 μM (% control) (human PBMCs)	PBMC 1 μM (% control) (human PBMCs)	SMILES	also measured
4.5 % control	–	CC1c2nnn(-c3ccc(F)cc3)c2CCN1C(=O)c1cccc(C(F)(F)F)c1Cl (centres unmarked) [Example 83, 5-{[2-Chloro-3-(trifluoromethyl)phenyl]carbonyl}-1-(4-fluorophenyl)-4-methyl-4,5,6,7-tetrahydro-1H-[1,2,3]triazolo[4,5-c]pyridine]	–
8.5 % control	–	CC1c2nnn(-c3ncccc3F)c2CCN1C(=O)c1cccc(C(F)(F)F)c1Cl (centres unmarked) [Example 84, 5-{[2-Chloro-3-(trifluoromethyl)phenyl]carbonyl}-1-(3-fluoropyridin-2-yl)-4-methyl-4,5,6,7-tetrahydro-1H-[1,2,3]triazolo[4,5-c]pyridine]	–
13.0 % control	–	CC1c2nnn(-c3cc[nH]n3)c2C=CN1C(=O)c1cccc(C(F)(F)F)c1Cl (centres unmarked) [Example 86, 5-{[2-Chloro-3-(trifluoromethyl)phenyl]carbonyl}-4-methyl-1-(1H-pyrazol-3-yl)-4,5-dihydro-1H-[1,2,3]triazolo[4,5-c]pyridine]	–
–	−1.5 % control	O=C(c1cccc(C(F)(F)F)c1Cl)N1C=Cc2c(nnn2-c2cnccn2)C1 [Example 89, 5-{[2-Chloro-3-(trifluoromethyl)phenyl]carbonyl}-1-pyrazin-2-yl-4,5-dihydro-1H-[1,2,3]triazolo[4,5-c]pyridine]	–
–	6.1 % control	O=C(c1cccc(C(F)(F)F)c1Cl)N1CCc2c(nnn2-c2cnccn2)C1 [Example 91, 5-{[2-Chloro-3-(trifluoromethyl)phenyl]carbonyl}-1-pyrazin-2-yl-4,5,6,7-tetrahydro-1H-[1,2,3]triazolo[4,5-c]pyridine]	–
–	2.7 % control	Cn1nc2c(c1-c1ccccn1)CCN(C(=O)c1cccc(C(F)(F)F)c1Cl)C2 [Example 92, 6-{[2-Chloro-3-(trifluoromethyl)phenyl]carbonyl}-2-methyl-3-pyridin-2-yl-4,5,6,7-tetrahydro-2H-pyrazolo[3,4-c]pyridine]	–
–	9.0 % control	O=C(c1cccc(C(F)(F)F)c1Cl)N1CCc2c(-c3ccccn3)n[nH]c2C1 [Example 93, 6-{[2-Chloro-3-(trifluoromethyl)phenyl]carbonyl}-3-pyridin-2-yl-4,5,6,7-tetrahydro-2H-pyrazolo[3,4-c]pyridine-TFA salt]	–
3.6 % control	–	O=C(c1cccc(C(F)(F)F)c1Cl)N1CCc2c(-c3cccnc3)n[nH]c2C1 [Example 96, 6-{[2-Chloro-3-(trifluoromethyl)phenyl]carbonyl}-3-pyridin-3-yl-4,5,6,7-tetrahydro-2H-pyrazolo[3,4-c]pyridine]	–
–	7.0 % control	O=C(c1cccc(C(F)(F)F)c1Cl)N1CCc2c(-c3ccccc3)n[nH]c2C1 [Example 99, (2-Chloro-3-(trifluoromethyl)phenyl)(3-phenyl-4,5-dihydro-1H-pyrazolo[3,4-c]pyridin-6(7H)-yl)methanone]	–
–	9.2 % control	O=C(c1cccc(Cl)c1Cl)N1CCc2c(-c3ccccc3)n[nH]c2C1 [Example 100, 6-[(2,3-Dichlorophenyl)carbonyl]-3-phenyl-4,5,6,7-tetrahydro-1H-pyrazolo[3,4-c]pyridine]	–
–	8.9 % control	O=C(c1ccnc(Cl)c1Cl)N1CCc2c(-c3ccccc3)n[nH]c2C1 [Example 104, 6-[(2,3-Dichloropyridin-4-yl)carbonyl]-3-phenyl-4,5,6,7-tetrahydro-1H-pyrazolo[3,4-c]pyridine]	–
–	51.0 % control	Cn1nc2c(c1-c1ccc(F)cc1)CCN(C(=O)c1cccc(C(F)(F)F)c1Cl)C2 [Example 105, 6-{[2-Chloro-3-(trifluoromethyl)phenyl]carbonyl}-3-(4-fluorophenyl)-2-methyl-4,5,6,7-tetrahydro-2H-pyrazolo[3,4-c]pyridine]	–
–	1.1 % control	Cn1nc(-c2cccnc2)c2c1CN(C(=O)c1cccc(C(F)(F)F)c1Cl)CC2 [Example 108, 6-{[2-Chloro-3-(trifluoromethyl)phenyl]carbonyl}-1-methyl-3-pyridin-3-yl-4,5,6,7-tetrahydro-1H-pyrazolo[3,4-c]pyridine]	–
−3.3 % control	–	O=C(c1cccc(Cl)c1Cl)N1CCc2c(-c3ccncc3)n[nH]c2C1 [Example 115, 6-[(2,3-Dichlorophenyl)carbonyl]-3-pyridin-4-yl-4,5,6,7-tetrahydro-2H-pyrazolo[3,4-c]pyridine]	–
4.3 % control	–	O=C(c1ccc(F)cc1Cl)N1CCc2c(nnn2-c2ccccn2)C1 [Example 117, (2-Chloro-4-fluorophenyl)(1-(pyridin-2-yl)-6,7-dihydro-1H-[1,2,3]triazolo[4,5-c]pyridin-5(4H)-yl)methanone]	–
−3.8 % control	–	CC1Cc2c(nnn2-c2ccccn2)CN1C(=O)c1cccc(Cl)c1Cl (centres unmarked) [Example 120, 5-[(2,3-Dichlorophenyl)carbonyl]-6-methyl-1-pyridin-2-yl-4,5,6,7-tetrahydro-1H-[1,2,3]triazolo[4,5-c]pyridine]	–
−0.2 % control	–	CC1Cc2c(nnn2-c2ccccn2)CN1C(=O)c1ccc(F)c(Cl)c1Cl (centres unmarked) [Example 121, 5-[(2,3-Dichloro-4-fluorophenyl)carbonyl]-6-methyl-1-pyridin-2-yl-4,5,6,7-tetrahydro-1H-[1,2,3]triazolo[4,5-c]pyridine]	–
0.2 % control	–	CC1Cc2c(nnn2-c2ncccc2F)CN1C(=O)c1cccc(C(F)(F)F)c1Cl (centres unmarked) [Example 122, 5-{[2-Chloro-3-(trifluoromethyl)phenyl]carbonyl}-1-(3-fluoropyridin-2-yl)-6-methyl-4,5,6,7-tetrahydro-1H-[1,2,3]triazolo[4,5-c]pyridine]	–
–	22.0 % control	O=C(c1cccc(C(F)(F)F)c1F)N1CCc2c(nnn2-c2ccccn2)C1 [Example 123, (2-Fluoro-3-(trifluoromethyl)phenyl)(1-(pyridin-2-yl)-6,7-dihydro-1H-[1,2,3]triazolo[4,5-c]pyridin-5(4H)-yl)methanone]	–
9.2 % control	–	Cn1ccc(-n2nnc3c2CCN(C(=O)c2cccc(C(F)(F)F)c2Cl)C3)n1 [Example 127, (2-Chloro-3-(trifluoromethyl)phenyl)(1-(1-methyl-1H-pyrazol-3-yl)-6,7-dihydro-1H-[1,2,3]triazolo[4,5-c]pyridin-5(4H)-yl)methanone]	–
8.4 % control	–	O=C(c1ccc(Cl)cc1F)N1CCc2c(nnn2-c2ccccn2)C1 [Example 129, (4-Chloro-2-fluorophenyl)(1-(pyridin-2-yl)-6,7-dihydro-1H-[1,2,3]triazolo[4,5-c]pyridin-5(4H)-yl)methanone]	–
3.7 % control	–	O=C(c1ccc(F)c(Cl)c1Cl)N1CCc2c(nnn2-c2ccccn2)C1 [Example 130, (2,3-Dichloro-4-fluorophenyl)(1-(pyridin-2-yl)-6,7-dihydro-1H-[1,2,3]triazolo[4,5-c]pyridin-5(4H)-yl)methanone]	–
3.8 % control	–	Cc1c(C(=O)N2CCc3c(nnn3-c3ccccn3)C2)ccc(F)c1F [Example 132, (3,4-Difluoro-2-methylphenyl)(1-(pyridin-2-yl)-6,7-dihydro-1H-[1,2,3]triazolo-[4,5-c]pyridin-5(4H)-yl)methanone]	–
1.7 % control	–	O=C(c1cccc(C(F)(F)F)c1Cl)N1CCc2c(nnn2-c2cccc(F)n2)C1 [Example 135, (2-Chloro-3-(trifluoromethyl)phenyl)(1-(6-fluoropyridin-2-yl)-6,7-dihydro-1H-[1,2,3]triazolo[4,5-c]pyridin-5(4H)-yl)methanone]	–
5.3 % control	–	COc1ccnc(-n2nnc3c2CCN(C(=O)c2cccc(C(F)(F)F)c2Cl)C3)c1 [Example 136, (2-Chloro-3-(trifluoromethyl)phenyl)(1-(4-methoxypyridin-2-yl)-6,7-dihydro-1H-[1,2,3]triazolo[4,5-c]pyridin-5(4H)-yl)methanone]	–
1.1 % control	–	C[C@@H]1c2nnn(-c3ncc(F)cn3)c2CCN1C(=O)c1cccc(C(F)(F)F)c1Cl [Example 158, (R)-(2-chloro-3-(trifluoromethyl)phenyl)(1-(5-fluoropyrimidin-2-yl)-4-methyl-6,7-dihydro-1H-[1,2,3]triazolo[4,5-c]pyridin-5(4H)-yl)methanone]	–
−0.9 % control	–	CC1Cc2c(nnn2-c2ncccc2F)CN1C(=O)c1cccc(Cl)c1Cl (centres unmarked) [Example 161, (2,3-Dichlorophenyl)(1-(3-fluoropyridin-2-yl)-6-methyl-6,7-dihydro-1H-[1,2,3]triazolo[4,5-c]pyridin-5(4H)-yl)methanone]	–
8.8 % control	–	CC1Cc2c(nnn2-c2cc(F)ccn2)CN1C(=O)c1cccc(Cl)c1Cl (centres unmarked) [Example 173, 5-[(2,3-Dichlorophenyl)carbonyl]-1-(4-fluoropyridin-2-yl)-6-methyl-4,5,6,7-tetrahydro-1H-[1,2,3]triazolo[4,5-c]pyridine]	–

SMILES	PBMC 10 μM (% control) (human PBMCs)	PBMC 1 μM (% control) (human PBMCs)	also measured
Cn1nc(-c2ccccc2)c2c1CN(C(=O)c1cccc(Cl)c1Cl)CC2.Cn1nc2c(c1-c1ccccc1)CCN(C(=O)c1cccc(Cl)c1Cl)C2 [Example 101, 6-[(2,3-Dichlorophenyl)carbonyl]-1-methyl-3-phenyl-4,5,6,7-tetrahydro-1H-pyrazolo[3,4-c]pyridine-6-[(2,3-dichlorophenyl)carbonyl]-2-methyl-3-phenyl-4,5,6,7-tetrahydro-2H-pyrazolo[3,4-c]pyridine (1:1)]	–	7.6 % control	PBMC 1 μM (% control) (LPS 30 ng/ml + 0.5 mM Bz-ATP): 7.6 % control
Cn1nc2c(c1-c1ccccc1)CCN(C(=O)c1cccc(Cl)c1Cl)C2 [Example 102, 6-[(2,3-Dichlorophenyl)carbonyl]-2-methyl-3-phenyl-4,5,6,7-tetrahydro-2H-pyrazolo[3,4-c]pyridine]	–	18.0 % control	–
Cn1nc(-c2ccccc2)c2c1CN(C(=O)c1cccc(Cl)c1Cl)CC2 [Example 103, 6-[(2,3-Dichlorophenyl)carbonyl]-1-methyl-3-phenyl-4,5,6,7-tetrahydro-1H-pyrazolo[3,4-c]pyridine]	–	56.0 % control	–
